Tested on: rat heart tissue
Test: GENECALLING differential gene expression analysis after dosing of serotonin modulating agents
Assay type: in vivo, Sprague Dawley rats
Procedure, shortened: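 GENECALLING profiling of cDNA from total RNA, keeping gene fragments modulated beyond ±1.5-fold. Tissue collected 24 h after final dosing of serotonin modulating agents; control rats received sterile water or canola oil.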

`CNCCC(Oc1ccc(C(F)(F)F)cc1)c1ccccc1` (stereo not drawn) [fluoxetine] was tested, and the “Effects on Transcription Level: Novel gene fragment, 524 bp, 86% SI to mouse F-box protein FBX6b [AF176526]” value (CARDIOTOX 1) was “+1.3 fold”, the “Effects on Transcription Level: Novel gene fragment, 306 bp, 91% SI to mouse low density lipoprotein receptor related protein 4 [AB013874]” value (CARDIOTOX 2) was −1.3 fold and the “Effects on Transcription Level: Novel gene fragment, 540 bp, 97% SI to mouse skeletal muscle alpha-actin [X03766]” value (CARDIOTOX 3) was −1.2 fold. The “Effects on Transcription Level: Novel gene fragment, 80 bp” value (CARDIOTOX 4) was −1.3 fold, the “Effects on Transcription Level: Novel gene fragment, 957 bp, 99% SI to kidney injury associated moleculer HW036 [V80591]” value (CARDIOTOX 5) was −1.4 fold and the “Effects on Transcription Level: Novel gene fragment, 282 bp, 85% SI to human KIAA1515 protein [AB040948]” value (CARDIOTOX 6) was −1.2 fold. For the same molecule, the “Effects on Transcription Level: Novel gene fragment, 405 bp, 88% SI to human 2-oxoglutarate dehydrogenase [D10523]” value (CARDIOTOX 7) was “+1.2 fold”, the “Effects on Transcription Level: UCP2” value (CARDIOTOX 8, GenBank AB010743) was −1.3 fold and the “Effects on Transcription Level: Plasma membrane Ca2 + ATPase-isoform 1” value (CARDIOTOX 9, GenBank J03753) was −1.1 fold. For the same molecule, the “Effects on Transcription Level: Novel gene fragment, 242 bp, 97% SI to mouse HSP86 heat-shock protein [X16857]” value (CARDIOTOX 10) was “+1.4 fold”, the “Effects on Transcription Level: Novel gene fragment, 280 bp, 65% SI to human TRF1-interacting, ankyrin-related ADP-ribose polymerase [AF082556]” value (CARDIOTOX 11) was “+1.3 fold” and the “Effects on Transcription Level: Novel gene fragment, 348 bp, 88% SI to mouse Sec61 protein complex gamma subunit [U11027]” value (CARDIOTOX 12) was “+1.2 fold”. The “Effects on Transcription Level: Novel gene fragment 553 bp, 93% SI to mouse Sid329 [AB024984]” value (CARDIOTOX 13) was “+1.1 fold”, the “Effects on Transcription Level: Kruppel-like transcription factor” value (CARDIOTOX 14, GenBank AB020759) was “+1.3 fold” and the “Effects on Transcription Level: Ribosomal protein L3” value (CARDIOTOX 15, GenBank X62166) was “+1.1 fold”. The “Effects on Transcription Level: Glucose-regulated protein (GRP) 75” value (CARDIOTOX 16, GenBank S78556) was “+1.3 fold”, the “Effects on Transcription Level: Immunoglobulin heavy chain binding protein (BiP)” value (CARDIOTOX 17, GenBank M14050) was “+1.4 fold” and the “Effects on Transcription Level: Membrane-spannining proteoglycan NG2” value (CARDIOTOX 18, GenBank X56541) was −1.2 fold. The “Effects on Transcription Level: Novel gene fragment, 1294 bp, 96% SI to mouse Sui 1 (elF) homolog [AF129888]” value (CARDIOTOX 19) was “+1.1 fold”, the “Effects on Transcription Level: Novel gene fragment, 723 bp, 85% SI to human translation initiation factor elF3 p40 subunit [U54559]” value (CARDIOTOX 20) was “+1.0 fold” and the “Effects on Transcription Level: Novel gene fragment, 1324 bp, 76% SI to human flavoprotein subunit of complex II [D30648]” value (CARDIOTOX 21) was “+1.3 fold”. For the same molecule, the “Effects on Transcription Level: Novel gene fragment, 852 bp, 81% SI to human vacuolar proton-ATPase subunit M9.2 [Y15286]” value (CARDIOTOX 22) was “+1.2 fold”, the “Effects on Transcription Level: Novel gene fragment, 178 bp, 91% SI to mouse myosin light chain-2 isoform MLC-2a [S70785]” value (CARDIOTOX 23) was “+1.3 fold” and the “Effects on Transcription Level: Novel gene fragment, 167 bp, 90% SI to mouse Rab20 [X80332]” value (CARDIOTOX 24) was −1.2 fold. For the same molecule, the “Effects on Transcription Level: Novel gene fragment, 1070 bp, 80% SI to human muscle-specific protein [AF249873]” value (CARDIOTOX 25) was “+1.3 fold”, the “Effects on Transcription Level: Novel gene fragment, 1143 bp, 82% SI to human sarcoma amplified sequence (SAS) [U01160]” value (CARDIOTOX 26) was “+1.2 fold” and the “Effects on Transcription Level: Novel gene fragment, 74 bp,75% SI to human secreted protein [X30160] (from patent database)/[X97578] (from patent database)/potential cytokine)” value (CARDIOTOX 27) was “+1.2 fold”. The “Effects on Transcription Level: Novel gene fragment, 408 bp, 90% SI to human CGI-07 protein [AF132941]” value (CARDIOTOX 28) was “+1.2 fold”, the “Effects on Transcription Level: Novel gene fragment, 618 bp, 95% SI to rat progression related cDNA, ZNPE-120 3′ end partial sequence [patent database X90805]” value (CARDIOTOX 29) was “+1.4 fold” and the “Effects on Transcription Level: Novel gene fragment, 717 bp” value (CARDIOTOX 30) was “+1.2 fold”. For the same molecule, the “Effects on Transcription Level: Novel gene fragment, 546 bp” value (CARDIOTOX 31) was “+1.1 fold”, the “Effects on Transcription Level: Novel gene fragment, 920 bp, 91% SI to human HSPC061 [AF161546]” value (CARDIOTOX 32) was “+1.4 fold” and the “Effects on Transcription Level: Novel gene fragment, 203 bp, 92% SI to rabbit sarcoplasmic reticulum glycoprotein [J04480]” value (CARDIOTOX 33) was −1.4 fold. For the same molecule, the “Effects on Transcription Level: Novel gene fragment, 178 bp, 68% SI to mouse IgG receptor (beta-Fc-gamma-RII)[M63159]” value (CARDIOTOX 34) was “+1.3 fold”, the “Effects on Transcription Level: Ribosomal protein L6” value (CARDIOTOX 35, GenBank X87107) was “+1.2 fold” and the “Effects on Transcription Level: CAP2 protein (adenylyl cyclase-associated protein 2)” value (CARDIOTOX 36, GenBank U31935) was “+1.4 fold”. The “Effects on Transcription Level: Alpha-platelet-derived growth factor receptor” value (CARDIOTOX 37, GenBank M63837) was “+1.3 fold”, the “Effects on Transcription Level: Rab GD1 alpha protein” value (CARDIOTOX 38, GenBank X74402) was −1.3 fold and the “Effects on Transcription Level: PKC-zeta-interacting protein” value (CARDIOTOX 39, GenBank Y08355) was “+1.1 fold”. For the same molecule, the “Effects on Transcription Level: ERK or MAP kinase” value (CARDIOTOX 40, GenBank X65198) was “+1.3 fold”, the “Effects on Transcription Level: Peroxisomal multifunctional enzyme type II” value (CARDIOTOX 41, GenBank U37486) was “+1.3 fold” and the “Effects on Transcription Level: HBP23 (heme-binding protein 23 kDa)” value (CARDIOTOX 42, GenBank D30035) was “+1.3 fold”. For the same molecule, the “Effects on Transcription Level: Caveolae-associated protein” value (CARDIOTOX 43, GenBank U90725) was “+1.3 fold”, the “Effects on Transcription Level: Prenylated rab acceptor 1 (PRA1)” value (CARDIOTOX 44, GenBank AF025506) was “+1.2 fold” and the “Effects on Transcription Level: Novel gene fragment, 337 bp, 88% SI to rabbit cardiac ryanodine receptor (RyR-2)[U50465]” value (CARDIOTOX 45) was “+1.3 fold”. For the same molecule, the “Effects on Transcription Level: Novel gene fragment, 81 bp, 85% SI to human titin [X90568]” value (CARDIOTOX 46) was −1.1 fold, the “Effects on Transcription Level: Novel gene fragment, 428 bp, 86% SI to human titin [X90568]” value (CARDIOTOX 47) was “+1.1 fold” and the “Effects on Transcription Level: Novel gene fragment, 374 bp, 88% SI to human titin [X90568]” value (CARDIOTOX 48) was “+1.1 fold”. The “Effects on Transcription Level: Novel gene fragment, 428 bp, 85% SI to human titin [90568]” value (CARDIOTOX 49) was −1.3 fold, the “Effects on Transcription Level: Novel gene fragment, 1216 bp, 93% SI to mouse mircotubule-associated protein (MAP) 1B protein [AF115776]” value (CARDIOTOX 50) was −1.2 fold and the “Effects on Transcription Level: Novel gene fragment, 1115 bp, 83% SI to human KIAA0549 protein [AB011121]” value (CARDIOTOX 51) was −1.4 fold. The “Effects on Transcription Level: Novel gene fragment, 153 bp” value (CARDIOTOX 52) was −1.4 fold, the “Effects on Transcription Level: Novel gene fragment, 89 bp, 93% SI to human putative glialblastoma cell differentiation-related protein (GBDR1) [AF068195]” value (CARDIOTOX 53) was −1.0 fold and the “Effects on Transcription Level: Rho-associated kinase beta” value (CARDIOTOX 54, GenBank U61266) was −1.2 fold. The “Effects on Transcription Level: Adenylate kinase 3” value (CARDIOTOX 55, GenBank D13062) was “+1.3 fold”, the “Effects on Transcription Level: Amyloid beta-peptide binding protein” value (CARDIOTOX 56, GenBank AF049878) was “+1.3 fold” and the “Effects on Transcription Level: Mitochondrial adenine nuleotide translocator” value (CARDIOTOX 57, GenBank D12771) was “+1.4 fold”. The “Effects on Transcription Level: Novel gene fragment, 710 bp, 94% SI to mouse chromatin structural protein homolog Supt5 hp (Supt5 h)[U88539]” value (CARDIOTOX 58) was “+2.8 fold”, the “Effects on Transcription Level: Novel gene fragment, 186 bp, 66% SI to human N-acetylglucosaminyltransferase 1 (GlcNAc-TI)[M55621]” value (CARDIOTOX 60) was −2.7 fold and the “Effects on Transcription Level: Novel gene fragment, 238 bp, 95% SI to mouse MAP kinase-activated protein kinase 2 [X76850]” value (CARDIOTOX 61) was −1.7 fold. The “Effects on Transcription Level: Novel gene fragment, 173 bp, 70% SI to G protein-coupled receptor kinase GRK4 [X97568]” value (CARDIOTOX 62) was −4.7 fold, the “Effects on Transcription Level: Novel gene fragment, 133 bp, 77% SI to human apoptosis related protein hSARP3 [patent database: V19114]” value (CARDIOTOX 63) was −2.6 fold and the “Effects on Transcription Level: Novel gene fragment, 477 bp, 98% SI to peroxisomal phytanoyl-CoA hydroxylase (PHYH) [AF121345]” value (CARDIOTOX 64) was “+3.7 fold”. For the same molecule, the “Effects on Transcription Level: Novel gene fragment, 413 bp, 95% SI to mouse dihydrolipoamide dehydrogenase (Dld) [U73445]” value (CARDIOTOX 65) was “+2.0 fold”, the “Effects on Transcription Level: Novel gene fragment, 726 bp, 76% SI to human succinate dehydrogenase flavoprotein subunit (SDH) [L21936]” value (CARDIOTOX 66) was −4.4 fold and the “Effects on Transcription Level: Novel gene fragment, 440 bp, 92% SI to mouse cytochrome c oxidase Vllc [X52940]” value (CARDIOTOX 67) was “+2.1 fold”. For the same molecule, the “Effects on Transcription Level: Novel gene fragment, 276 bp, 80% SI to human titin [X90568]” value (CARDIOTOX 68) was −11.0 fold, the “Effects on Transcription Level: Novel gene fragment, 149 bp, 70% SI to human titin [X90568]” value (CARDIOTOX 69) was −3.7 fold and the “Effects on Transcription Level: Novel gene fragment, 467 bp, 94% SI to mouse gelsolin [J04953]” value (CARDIOTOX 70) was −3.8 fold.

Reference: patent US20040005537A1, “Method of identifying toxic agents using differential gene expression” (priority 2000, published 2004)
